This is an account of results in patent US6987103B2, “Treatment of chronic myelogenous leukmia, resistant or intolerant to ST1571, involving homoharringtonine alone or combined with other agents” (Stragen Pharma S.A., priority 2001, dated 2006).

In data set [1] the test system is Chronic myelogenous leukemia (CML). To be noted: in vivo; cited from earlier work.
The subject of data set [2] is chronic phase of Philadelphia positive chronic myelogenous leukemia. Description: Case of patient #15 successively resistant to five drugs including STI571, treated by homoharringtonine. In kind it is in vivo, human.
Description: After a debulking treatment with hydroxyurea, a combination of interferon alpha (5 MU/m^2/day) and low-dose cytarabine was administered according to a standard regimen (subcutaneous mode of administration, 15 mg/m^2/day, daily, permanently). Then, to maintain hematologic response at the initial level, cytarabine regimen was increased to intermediate dose (200 mg/m^2/day). […] Finally, a treatment based on homoharringtonine alone was initiated. At the time of initiation of homoharringtonine treatment, WBC count was 31,000/μL: 2.5 mg/m^2/day, 14 days.
The conditions of data set [3]: in vivo; cited from earlier work.
The subject of the next data set is LAMA84-s. As to the kind of experiment: MTS cell proliferation assay, median effect combination analysis with STI571. In kind it is cell-based, human. The following applies: STI571:HHT = 27.3:1. From the text:
(§1) The combination ratios are selected, where possible, such that both drugs are in a range relevant to their achievable serum concentrations. STI571-sensitive and resistant cells are exposed to doubling dilutions of homoharringtonine over a wide range (Table 1). […] The effects of homoharringtonine treatments are plotted and analyzed to produce computed estimations of the relative responses to either homoharringtonine alone or in combination. In this way it is possible to detect synergistic, additive or antagonistic effects. Duplicate or triplicate independent experiments are set up for each cell line/drug combination. In each case the analysis generates plots of CI (Combination Index) versus effect. […] These values are most relevant at high effect levels, as this is the desired physiological level of effect. Subsequently the CI curves can be represented as the average CI values at effects 0.5, 0.75 and 0.9 (IC50, IC75 and IC90 respectively). Cell proliferation is monitored with the CellTiter 96® AQucous One Solution Cell Proliferation Assay (Promega, UK). […] Proliferation is assessed on aliquots taken daily from days 1 to 4 in order to establish the most representative time-point. Replicate experiments are thereafter set up by plating the cells directly into 96-well plates and staining with MTS on day 3. A minimum of 95% viability as assessed by Trypan blue staining is required for the initiation of any experiment. […] Blank wells contained 100 μL RF10. All samples are plated in quadruplicate. […] On day 3, 20 μL of MTS reagent is added to each well, and the plate is re-incubated for a further 3–4 hours for stain development. At the end of this period, the plates are gently agitated and the absorbance of each well at 490 nm is recorded on an automatic microplate reader (MRX, Dynatech, Billingshurst, UK). Averaged blank values (no cells, no drug) are subtracted from sample values, and these corrected A490 values are calculated as percentages of the control cultures grown in the absence of drug. Error bars indicate the range defined in duplicate experiments, and significant differences considered as those which fell outside the region of overlap in the ranges of the means. Such an approach is supported by the non-parametric Mann-Whitney U test.
In general terms: Formazan colour is commonly taken as a measure of viable cells.

For a further data set, the system named is LAMA84-r. Described as above. In kind it is cell-based, human. The following applies: LAMA84-r (STI571-resistant); STI571:HHT = 27.3:1.
From the text: as §1

The test system of the next data set is K562-r. Described as above. The following applies: K562-r (STI571-resistant); STI571:HHT = 27.3:1. In kind it is cell-based, human.
From the text: as §1

A further data set deals with K562-s. The data set is described as above. To be noted: STI571:HHT = 27.3:1. In kind it is cell-based, human.
From the text: as §1

Data set [4] deals with accelerated phase chronic myelogenous leukemia. The following applies: human, in vivo. The procedure: Description. […] The patient was resistant to interferon alpha, BCNU, HU at the time of initiation of induction with homoharringtonine (2.5 mg/m^2/day, 15 days). After white blood cell and platelet counts recovery, ten further 7-day cycles of homoharringtonine combined with cytarabine (Ara-C) 10 mg (flat dose) daily, were administered. An average of 7 days of daily Ara-C per 28-day cycle was used (see treatment plan of FIG. 1).

Take interferon alpha: the median survival entry in data set [1] was “about 7 years”.
In the case of `COC(=O)[C@H](CCSC)NC(=O)c1ccc(NC[C@@H](N)CS)cc1-c1ccccc1` [farnesyl transferase inhibitor], the peripheral blood response result in data set [2] (patient #15, after first relapse under interferon alpha) is on record as “transient peripheral blood response”.
With `COC(=O)C[C@](O)(CCCC(C)(C)O)C(=O)O[C@@H]1C(OC)=C[C@]23CCCN2CCc2cc4c(cc2[C@H]13)OCO4` [homoharringtonine], the WBC count in data set [2] (patient #15, day 17, HHT 2.5 mg/m^2/day, 14 days, 31,000/μL at initiation) is given as 2,400 /μL. The “Drug concentration in serum” value in data set [3] is recorded as 36.6 nM. Besides, the “Average CI (Combination index) at FA values of 0.5, 0.75 and 0.9” value in the data set on LAMA84-s amounted to 1.2; in the data set with LAMA84-r, 0.6; in the data set with K562-r it was 0.6; in the data set with K562-s, 1.1. Besides, the “adverse events attributable to the agent” value in data set [4] is given as “no non-hematologic adverse events attributable to homoharringtonine”.
Consider `Nc1ccn([C@@H]2O[C@H](CO)[C@@H](O)[C@@H]2O)c(=O)n1` [cytarabine], for which the “adverse events attributable to the agent” value in data set [4] was “Mouth ulceration and alveolar hemorrhage”.
